Holding throughout (assay type): physicochemical
One data set is described as follows: Solubility in DMSO.
Data set [1] is described as follows: UV–VIS spectra of E/Z isomers in DMSO. As to conditions: for Δ λmax n→π*: between E and Z isomers. As to the method:
For this purpose, the UV–VIS spectra were measured for all synthesized hybrids (17a–17l) at concentrations from 20 to 500 µM in dimethyl sulfoxide (DMSO) in light at λ 505 nm and for (17a–17c), (17e–17g), and (17i–17l) at λ 525 nm, respectively, as detailed in Table 1 (see Section S4.4 in Supplementary Materials).

Data set [2] is described as follows: Changes over time of Z to E transition by 19F NMR. As to conditions: light 525 nm, 100 mM in DMSO. The text has this: We can observe that for electromagnetic radiation in the range of wavelengths 390 nm to 610 nm, transitions from E to Z of about 0–76% are obtained. The best results for all compounds are in visible wavelengths 505 nm or 525 nm (30.59–75.44%). From analyzing Figure 2 we can draw the following conclusions: all synthesized compounds undergo switching under visible light (this is important because UV radiation can damage the DNA of cells, inhibiting replication and, as a result, preventing cell division). For the 2,6-difluoro substituents (17i), (17j), (17k), and (17l) with values of 74.84%, 73.2%, 74.39%, and 75.44%, respectively, the largest share of the Z configuration is at (525 nm) and, for the rest of (17a), (17b), (17c), (17e), (17f), and (17g), it is in range of 30.57–47.13% at 505 nm. […] Multiple cycles of photoreversible switching under alternating green and blue light irradiation, with no significant photobleaching or degradation, confirmed the repeatable and robust photochromic conversion of the synthesized azobenzenes (Figure 2b). Then we measured changes over time (transitions from Z to E, upon irradiation with 505 nm for (17a–17c) and (17e–17g), and 525 nm for (17i–17l) compounds (Figure 3, and see Section S4.3 in Supplementary Materials).

Data set [3] can be described thus: Photostationary state (PSS) composition by 19F NMR. As to conditions: irradiation 525 nm, DMSO-d6. The text has this:
Azo compounds have been applied in various fields due to their ability to undergo structural changes, with one of the most interesting applications being the direct conversion of light into mechanical energy. However, azobenzenes generally face two main limitations that hinder their practical use in biological and materials sciences. The first is the need for UV light to induce the E→Z isomerization through π→π* excitation, which can potentially interfere with and damage the surrounding environment. The second limitation is the typically incomplete reverse Z→E photoisomerization, which is induced by irradiation in the visible region. In this region, the n→π* bands of the E and Z isomers largely overlap, making it difficult to achieve E-rich photostationary states (PSSs) after back-switching. These limitations can be overcome by modifying azobenzene in such a way that the n→π* bands of the E and Z isomers are sufficiently separated. If the separation is large enough, the two n→π* bands can be distinct, allowing visible light to selectively isomerize both isomers with high to complete E/Z photoconversions. We are looking for switches that operate within the visible light range of 380–750 nm, which is harmless. Fluorine-substituted azobenzenes are well-suited for designing visible-light-responsive systems, offering stable and bidirectional photoconversions along with tissue-compatible properties. We confirmed that the compounds we synthesized successfully dock with tubulin. In the next step, we tested whether the added azo compound would meet our expectations as a visible light switch. For this purpose, we used NMR spectroscopy. We measured ^19F spectra of (17a–17c, 17e–17g, and 17i–17l) at nine wavelengths from 390 nm to 610 nm to check which wavelengths produce the most Z isomer after exposure (see Section S4.2 in Supplementary Materials). We selected DMSO as the solvent due to its ability to dissolve both polar and nonpolar molecules, which is essential for the analytical methods employed in this study. Its intermediate polarity also makes it a good surrogate for both organic and aqueous solvents. Additionally, DMSO is commonly used for preparing stock solutions, which are then illuminated and diluted into aqueous systems for assessing biological activity. […]
Figure 2 (a) Photostationary state (PSS) compositions for chalcones (17a–17c, 17e–17g, and 17i–17l) determined by ^19F NMR analysis (c ≈ 100 mM in DMSO-d6), presented in a bar chart; (b) representative multiple photoswitching rounds of 60 µM of (17j) in DMSO by pulsed green (525 nm) and blue (430 nm) light illumination. The photochemical stability of the drug is analyzed via repeated cycles of irradiation (software: Microsoft Excel).

The structures appear in SMILES notation.

For the molecule `O=C(/C=C/c1ccc(Br)cc1)c1cccc(/N=N/c2ccc(F)cc2)c1` [Compound 17d], the “solubility in DMSO” value in “Solubility in DMSO” is listed as “poorly soluble”. For the same molecule, in data set [1] (E isomer), the “εmax (n→π*)” value was 660 dm^3·mol^−1·cm^−1 and the “λmax n→π* (E)” value amounted to 440.8 nm. Further, in data set [1] (Z isomer), the “εmax (n→π*)” value is listed as 850 dm^3·mol^−1·cm^−1 and the “λmax n→π* (Z)” value is listed as 434.1 nm. Besides, in data set [1], the “Δ λmax n→π*” value is on record as 6.7 nm.
`O=C(/C=C/c1ccc(Br)cc1)c1cccc(/N=N/c2ccc(F)cc2F)c1` [Compound 17h]: the “solubility in DMSO” value in “Solubility in DMSO” is recorded as “poorly soluble”. Also, in data set [1] (E isomer), the “εmax (n→π*)” value came out at 796 dm^3·mol^−1·cm^−1 and the “λmax n→π* (E)” value was found to be 441.2 nm. In data set [1] (Z isomer), the “εmax (n→π*)” value is 1016 dm^3·mol^−1·cm^−1 and the “λmax n→π* (Z)” value was 426.9 nm. For the same molecule, the “Δ λmax n→π*” value in data set [1] was 14.3 nm.
As for `COc1ccc(/C=C/C(=O)c2cccc(/N=N/c3c(F)cccc3F)c2)cc1OC` [Compound 17i], the “Z isomer, changes over time” value is 74.84% in data set [2] (0 h); 73.32% in data set [2] (1 h); 72.17% in data set [2] (2 h); 70.9% in data set [2] (3 h); 69.59% in data set [2] (4 h); 68.98% in data set [2] (5 h). Also, the “Z isomer, changes over time” value in data set [2] (6 h) came out at 68%; in data set [2] (7 h) it was 67.46%; in data set [2] (8 h), 66.19%. The “Δ (Z to E change 0 h to 8 h)” value in data set [2] is listed as 8.65%. Moreover, the “share of the Z configuration (PSS)” value in data set [3] is 74.84%.
Consider `COc1cc(/C=C/C(=O)c2cccc(/N=N/c3c(F)cccc3F)c2)cc(OC)c1OC` [Compound 17k], for which the “Z isomer, changes over time” value in data set [2] (0 h) amounted to 74.39%; in data set [2] (1 h), 74.02%; in data set [2] (2 h), 72.48%; in data set [2] (3 h) it was 72.26%; in data set [2] (4 h) it was 70.95%; in data set [2] (5 h), 70.43%. The “Z isomer, changes over time” value is reported as 69.33% in data set [2] (6 h), 67.93% in data set [2] (7 h) and 67.18% in data set [2] (8 h). Also, the “Δ (Z to E change 0 h to 8 h)” value in data set [2] is 7.21%. The “share of the Z configuration (PSS)” value in data set [3] is on record as 74.39%.
Consider `O=C(/C=C/c1ccc(Br)cc1)c1cccc(/N=N/c2c(F)cccc2F)c1` [Compound 17l], for which the “Z isomer, changes over time” value came out at 75.44% in data set [2] (0 h); 74.04% in data set [2] (1 h); 72.7% in data set [2] (2 h); 71.56% in data set [2] (3 h); 70.77% in data set [2] (4 h); 69.92% in data set [2] (5 h). The “Z isomer, changes over time” value in data set [2] (6 h) is given as 68.63%; in data set [2] (7 h), 67.93%; in data set [2] (8 h) it was 67.78%. The “Δ (Z to E change 0 h to 8 h)” value in data set [2] worked out at 7.66%. In addition, the “share of the Z configuration (PSS)” value in data set [3] came out at 75.44%. Moreover, the “εmax (n→π*)” value in data set [1] (E isomer) came out at 902 dm^3·mol^−1·cm^−1; in data set [1] (Z isomer), 1074 dm^3·mol^−1·cm^−1. In addition, the “λmax n→π* (E)” value in data set [1] (E isomer) was 448.6 nm. The “λmax n→π* (Z)” value in data set [1] (Z isomer) came to 417.9 nm. Further, the “Δ λmax n→π*” value in data set [1] is given as 30.7 nm.

The record behind these values is article PMC12844124, “Synthesis and Study of Substituted Chalcones Combined with Fluoroazobenzenes—New Photoswitches for Application in Biological Systems” (Molecules, 2026).
